The structures appear in SMILES notation.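 Method: 48-hour compound exposure of cells in 96-well plates, five concentrations, linear interpolation of endpoints. At the TGI there is no net growth.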

Test systems include KM20L2 colon; SK-OV-3 ovarian; SNB-75 CNS; UACC-62 melanoma; ACHN renal; SK-MEL-5 melanoma; OVCAR-4 ovarian; NCI-H522 lung; HOP-92 NSCLC; BT-549 breast; PC-3 prostate; MDA-N; SW-620 colon; COLO 205 colon; SN12C renal; MDA-MB-231 breast.
What all share (assay): NCI tumour cell line growth inhibition, 48 h

In the case of `O=C(N/N=C/c1cc(Br)cc(Br)c1[O-])c1ccccc1O.O=C(N/N=C/c1cc(Br)cc(Br)c1[O-])c1ccccc1O.[Cu+2]`, the TGI in the test with KM20L2 colon came to 2090 nM; with SK-OV-3 ovarian, 1120 nM; in the test with SNB-75 CNS it was 1990 nM; in the test on UACC-62 melanoma, 551 nM; in the test with ACHN renal, 2420 nM; with SK-MEL-5 melanoma, 844 nM. Further, the TGI was 560 nM in the test with OVCAR-4 ovarian, 590 nM in the test on NCI-H522 lung and 1280 nM with HOP-92 NSCLC.
Consider `CN1C2CCC1CC(C)(O)C2` (stereo unspecified), for which the TGI in the test on BT-549 breast, in the test with PC-3 prostate, in the test on MDA-N, in the test on SW-620 colon, with COLO 205 colon and in the test with SN12C renal was > 100000 nM throughout. Also, the TGI in the test on MDA-MB-231 breast was > 100000 nM.

The values above are taken from PubChem BioAssay (NCI).
